Laboratory results: patent US20230414615A1, “PYRIMIDINONE COMPOUNDS FOR TREATING ACUTE INFLAMMATION” (TES Pharma S.r.l., priority 2022, published 2023)

Legend:
rat renal NRK52E cells = test: OPA-1 expression in rat renal NRK52E cells following Cisplatin insult; assay type: cell-based; conditions: via SIRT-3 activation; following Cisplatin insult (100 μM)
[1] = system: co-culture primary hepatocytes and Kupffer cells; test: IL-6 secretion in co-culture of primary hepatocytes and Kupffer cells following LPS-induced inflammation; assay type: cell-based; conditions: LPS 50 ng/mL; stated as dose-dependent
[2] = system: mouse primary hepatocytes; test: SOD2 activity in mouse primary hepatocytes; assay type: cell-based; conditions: treatment for 24 hrs; stated as dose-dependent
Kupffer cells [3] = test: Cytokine secretion in Kupffer cells following LPS-induced inflammation (Bio-Plex); assay type: cell-based, mouse; conditions: LPS 50 ng/mL; for secretion of IL-1β / secretion of IL-6: 1 μM
Source text: […] Cells treated with DMSO were used as control at the final concentration of 0.5% in medium. All the wells were normalized with DMSO at 0.5% final concentration. The supernatant was collected to measure cytokine secretion using a Bio-Plex Pro mouse cytokine 23-plex assay system (cat #M60009RDPD) using a Bio-Plex Instrument. The cells were washed once with PBS, and then lysed to extract total RNA for performing RT-PCR to evaluate ACMSD modulation of IL-10, SIRT1, and STAT3 gene expression.
All cytokine secretion values were normalized to the luminescent signal relative to the measuring of the cellular ATP (CellTiter-Glo cat #G7571)).

Kupffer cells [4] = test: NAD+ biosynthesis in Kupffer cells; assay type: cell-based
[5] = system: co-culture of primary hepatocytes and stellate cells; test: Gene expression in co-culture of primary hepatocytes and stellate cells after free fatty acid mix; assay type: cell-based; conditions: 5 μM; after 6 hr exposure to palmitate (0.33 mM) and oleate (0.66 mM)
[6] = system: kidney proximal tubular HK2 cells; test: NAD+ biosynthesis in kidney proximal tubular HK2 cells; assay type: cell-based
primary hepatocytes [7] = test: NAD+ biosynthesis in primary hepatocytes; assay type: cell-based
liver and kidneys = test: Transcription of mitochondrial genes in liver and kidneys after administration of ACMSD inhibitors; assay type: in vivo
primary hepatocytes [8] = test: SIRT1 activation in primary hepatocytes; assay type: cell-based; conditions: 500 nM; 24 hrs after treatment
primary hepatocytes [9] = test: Gene expression / mRNA levels in primary hepatocytes; assay type: cell-based, mouse; conditions: for mRNA levels of mitochondrial genes TFAM, Ndufa, Uqcrc1, CytC, Atp5g1 and CS: mouse primary hepatocytes after 24 hr treatment
[10] = system: co-culture of primary hepatocytes and stellate cells; test: Cytokine secretion in co-culture of primary hepatocytes and stellate cells following LPS-induced inflammation; assay type: cell-based; conditions: LPS 50 ng/mL; for secretion of IL-1β: 1 μM
[11] = system: human primary bone marrow mononuclear cells (BMMCs); test: LPS-induced cytokine secretion in human primary bone marrow mononuclear cells (BMMCs); assay type: cell-based; conditions: for secretion of TNFα: BMMC cells, LPS 50 ng/mL
[12] = system: CLP-induced sepsis model in mice; test: CLP-induced sepsis model in mice (ex-vivo kidney gene expression, survival); parameters: species or system mouse; conditions: IP 30 mg/kg/dose
Procedure: C57BL/6 mice (12-15 weeks old) (obtained from Charles River Laboratories) were anesthetized by intraperitoneal (i.p.) injection of a 1:1 solution of ketamine (75 mg/kg) and xylazine (15 mg/kg) (or pentobarbital (70 mg/kg)). The lower abdomen of the mouse was shaved and the area disinfected with a 70% alcohol swab. Under aseptic conditions, a 1 to 2 cm midline laparotomy was performed and the cecum exposed. The cecum was tightly ligated at the level of the second cecal artery with a 2.0 silk suture, perforated twice with a 22-gauge needle, and after expressing to allow for fecal matter to extrude, returned into the abdomen. The abdominal wall is then closed by planes using a running silk 4-0. Control animals underwent the same laparotomy and externalization of the cecum, but no ligation or perforation was performed. Animals were resuscitated with 1.0 mL of 0.9% normal saline, immediately after surgery via subcutaneous injection and recovered on thermal blankets under monitoring. Animals were then treated with 0.5 ml LRS (Q12 hours SQ for 3 days), ampicillin sulbactam (250 mg/kg Q12 hours IP for 3 days) and analgesic treatment (buprenorphine 0.05 mg/kg for 3 days).
ACMSD inhibitors (e.g. compounds of present disclosure, compound of Formula I, Ia, Ib, and II) were administered at two different timepoints: (a) an early phase timepoint i.e. at the time of CLP and (b) at 24 hours after CLP. […] Blood samples and target organ tissue (liver and kidney) were collected at the time of sacrificing for histology and biomarker measurements.
(§1) MATERIALS AND METHODS: Treatment with Compound I-18 in presence of LPS for 24 h has been performed to evaluate anti inflammatory properties and M1 to M2 transition. Renal tubular cells were stimulated with Compound I-18 and TGFβ for 16 hrs to evaluate the expression of genes involved in fibrosis. […] Survival percentage and liver gene modulation has been monitored in Sham groups, LPS and LPS+Compound 1-18 groups (n=8). […] Survival percentage and expression of genes involved in renal inflammation has been monitored.

HK2 primary tubule cells = test: Gene expression in HK2 (HK-2) primary tubule cells, basal or after Cisplatin insult; assay type: cell-based
[13] = system: preclinical model of liver and kidney diseases; test: Preclinical model of liver and kidney diseases (NASH, AKI); conditions: in vivo
murine Kupffer cells = test: M1/M2 polarisation of murine Kupffer cells treated with LPS; assay type: cell-based, mouse
Procedure: (§2) MATERIALS AND METHODS: Treatment with Compound I-18 in presence of LPS for 24 h has been performed to evaluate anti inflammatory properties and M1 to M2 transition. Renal tubular cells were stimulated with Compound I-18 and TGFβ for 16 hrs to evaluate the expression of genes involved in fibrosis. Compound 1-18 (50 mg/kg) was dosed daily in mice treated with LPS 15 mg/kg. Survival percentage and liver gene modulation has been monitored in Sham groups, LPS and LPS+Compound 1-18 groups (n=8). 12-15 week old mice underwent CLP (50% ligation, thru-and-thru puncture with 21G needle) to evaluate CLP-induced sepsis. Compound I-18 was dosed at the concentration of 50 mg/kg for 7 days from CLP. Survival percentage and expression of genes involved in renal inflammation has been monitored.

HK2 cells = test: TGF-β-induced fibrosis in HK2 (renal tubular) cells; assay type: cell-based
Procedure: as §2

Kupffer cells [14] = test: Gene expression (RT-PCR) in Kupffer cells; assay type: cell-based, mouse
Procedure: 200,000 Kupffer cells were plated out in a 24 well plate and the ACMSD inhibitor (e.g. compounds of present disclosure, compound of Formula I, Ia, Ib, and II) (5 μM) was added 1 hr before the cells were stimulated with LPS overnight 50 ng/ml (1 mg/mL stock solution in H2O, dispensed at 50 ng/mL in the well) final concentration. Cells treated with DMSO were used as control at the final concentration of 0.5% in medium. All the wells were normalized with DMSO at 0.5% final concentration. The supernatant was collected to measure cytokine secretion using a Bio-Plex Pro mouse cytokine 23-plex assay system (cat #M60009RDPD) using a Bio-Plex Instrument. The cells were washed once with PBS, and then lysed to extract total RNA for performing RT-PCR to evaluate ACMSD modulation of IL-10, SIRT1, and STAT3 gene expression.
Briefly, total RNA was extracted from the cells using the manufacturer's protocol for Qiagen RNeasy Plus Mini Kit (cat. 74134). The total RNA concentration was quantified using an Implen Instrument, and the purity was evaluated by measuring the ratio of A260/A280.
Total RNA (1 μg) was reverse transcribed using the manufacturer's protocol for SuperScript IV VILO Master Mix (ThermoFisher cat. #. 11756500). Real-time PCR was then performed in CFX 96 Real Time System (Bio-Rad) as follows: denaturation at 95° C. for 2 minutes, followed by 40 cycles at 95° C. for 10 s, and hybridization at 60° C. for 20 s. QPCR was performed using the 2× QuantiNova SYBR Green PCR Master Mix (Qiagen). Mouse β2 microglobulin (m 02M) was used as a reference gene.

C57BL/6 mice = test: LPS-induced systemic inflammation in mice, survival; assay type: in vivo, mouse; conditions: 50 mg/kg dosed daily, LPS 15 mg/kg
Procedure: Male C57/6 mice (12-15 weeks old) (obtained from Charles River Laboratories) were housed under a 12 h/12 h light/dark cycle with free access to water and standard food. The mice were divided into four groups: control, control+ACMSD inhibitor, LPS, and LPS+the ACMSD inhibitor. LPS (Sigma; 20 mg/kg/d and 1 mg/ml in 0.9% normal saline) was intraperitoneally injected, and the same volume of 0.9% normal saline alone was used as controls. A dose of 15 mg/kg IP injection of the ACMSD inhibitor (e.g. compounds of present disclosure, compound of Formula I, Ia, Ib, and II) was used which was intraperitoneally injected immediately after LPS injection. An equal volume of the solvent was injected in the control and LPS alone groups. The mice were sacrificed at 24 h after various treatments and the liver and kidneys were collected for subsequent analysis.
as §1

[15] = mRNA levels of mitochondrial and oxidative stress genes (cell type not stated); assay type: cell-based; conditions: 100 μM
[16] = 100 μM, HK-2 cells following cisplatin-insult
[17] = murine Kupffer cells treated with LPS
[18] = cell system not restated (follows HK2 TGF-β experiment)

## N#Cc1c(-c2cccs2)nc(SCc2cccc(-c3nn[nH]n3)c2)[nH]c1=O [Compound I-17]
Rat renal NRK52E cells
  expression of OPA-1: increasing
[1]
  secretion of IL-6: reduced
[2]
  activity of mitochondrial superoxide dismutase 2, SOD2: increases
Kupffer cells [3]
  secretion of IL-1β: reduces
  secretion of TNFα: reduces
Kupffer cells [3]; incubation time 24 h
  secretion of IL-6: reduced
Kupffer cells [4]
  NAD+ biosynthesis: restores
[5]
  expression of IL-1β: reduced
  expression of TNFα: reduced
  expression of pro-fibrotic chemokine CTGF: reduces
  expression of pro-fibrotic cytokine TGF-β: reduces
  expression of the pro-fibrotic genes BAX, ACTA2, Col1A1, fibronectin, THBS-1 and TIMP2: reduces
[6]
  NAD+ biosynthesis: restores
Primary hepatocytes [7]
  NAD+ biosynthesis: restores
Liver and kidneys
  expression of the same genes (Mcad, Cpt1a, Ndufa2, Atp5g1, Sod2) in the kidneys: unaffected
  transcription of the mitochondrial genes Mcad, Cpt1a, Ndufa2, Atp5g1 and Sod2 in the liver: induces
Primary hepatocytes [8]
  SIRT1 activation: activate
Primary hepatocytes [9]
  mRNA levels of mitochondrial genes TFAM, Ndufa, Uqcrc1, CytC, Atp5g1 and CS: increases
Primary hepatocytes [9]; primary hepatocytes
  expression of mitochondrial SOD2: increases
Primary hepatocytes [9]; primary hepatocytes after 6 hr exposure to palmitate (0.33 mM) and oleate (0.66 mM)
  mRNA levels of fatty acid oxidation genes Mcad, Cpt1a, Hadha1, Hsl, Pdk4 and Sdha: increases
Primary hepatocytes [9]; primary hepatocytes, via SIRT-1 activation
  expression of mitochondrial transcription factor A, TFAM: increasing
[10]
  secretion of IL-1β: reduces
  secretion of TNFα: reduces
[11]
  secretion of TNFα: reduces

## N#Cc1c(-c2cccs2)nc(SCc2cccc(CC(=O)O)c2)[nH]c1=O [Compound I-18]
[1]
  secretion of IL-6: reduced
[12]
  expression of IL-1β in ex-vivo kidney tissue samples: reduced
  expression of MCP1 in ex-vivo kidney tissue samples: reduced
  expression of TNFα in ex-vivo kidney tissue samples: reduced
HK2 primary tubule cells; 50 μM, HK2 primary tubule cells
  reduction of SIRT expression induced by a Cisplatin insult: reverses
HK2 primary tubule cells; [16]
  expression of OPA-1: increases
  expression of SOD2: increases
HK2 primary tubule cells; HK2 primary tubule cells
  expression of SIRT-3: increases
HK2 primary tubule cells; HK-2 cells after 24 hr treatment
  mRNA levels of mitochondrial genes Sod1, Ndufa2, Cox2 and CytC: increase
[2]
  activity of mitochondrial superoxide dismutase 2, SOD2: increases
Kupffer cells [3]
  secretion of IL-1β: reduces
  secretion of TNFα: reduces
Kupffer cells [3]; incubation time 24 h
  secretion of IL-6: reduced
  secretion of IL-6, dose dependence of the reduction: in a dose-dependent manner
[13]
  effects in preclinical model of liver and kidney diseases, such as NASH and AKI: protective effects
Murine Kupffer cells; in vitro, M1 induced by LPS
  polarisation of resident liver macrophages (Kupffer cells) towards an M2 phenotype (M1-to-M2 transition): promoting their conversion
Murine Kupffer cells; [17]
  M1 phenotype gene markers iNOS, IL-6 and TNFα: decrease
  M2 phenotype gene markers Arginase-1, Mannose Receptor (Mrc-2) and IL-10: increase
  anti-inflammatory M2 Kupffer macrophages / M2 macrophage phenotype: promotes
Murine Kupffer cells; murine Kupffer cells treated with LPS, dose-response manner
  pro-inflammatory M1 Kupffer macrophages: blocks
Murine Kupffer cells; two different stimuli (LPS and IL-4)
  M2 macrophage phenotype: can promote
HK2 cells; TGF-β-induced fibrosis in HK2 cells
  SMAD4 expression: less modulated
HK2 cells; both preventive and therapeutic treatment, TGF-β-induced fibrosis in HK2 cells
  SMAD3: dose-dependent reduction
HK2 cells; [18]
  expression of TIMP2: dose-dependent reduction
  expression of fibronectin: dose-dependent reduction
HK2 cells; renal tubular cells stimulated with TGFβ for 16 hrs
  in vitro fibrosis in renal cells: reduced
Kupffer cells [4]
  NAD+ biosynthesis: restores
Kupffer cells [14]
  expression of SIRT-1: increases
Kupffer cells [14]; inflammatory conditions (LPS at 50 ng/mL), beyond basal conditions
  QPRT expression: increases
Kupffer cells [14]; stated as dose-dependent
  expression of IL-10: increases
  expression of STAT3: increases
C57BL/6 mice
  survival in LPS-induced systemic inflammation: promotes survival
[5]
  expression of TNFα: reduced
  expression of pro-fibrotic chemokine CTGF: reduces
  expression of pro-fibrotic cytokine TGF-β: reduces
  expression of the pro-fibrotic genes BAX, ACTA2, Col1A1, fibronectin, THBS-1 and TIMP2: reduces
[6]
  NAD+ biosynthesis: restores
Primary hepatocytes [7]
  NAD+ biosynthesis: restores
Liver and kidneys
  expression of the same genes (Mcad, Cpt1a, Ndufa2, Atp5g1, Sod2) in the kidneys: unaffected
  transcription of the mitochondrial genes Mcad, Cpt1a, Ndufa2, Atp5g1 and Sod2 in the liver: induces
[15]
  mRNA levels of mitochondrial and oxidative stress genes CS, Ndufa2, Cox2, Atp5g1, Sod1 and Sod2: increases
Primary hepatocytes [8]
  SIRT1 activation: activate
Primary hepatocytes [9]
  mRNA levels of mitochondrial genes TFAM, Ndufa, Uqcrc1, CytC, Atp5g1 and CS: increases
[10]
  secretion of IL-1β: reduces
  secretion of TNFα: reduces
[11]; 5 μM, human BMMCs
  secretion of LPS-induced IL-6: reduces
[11]
  secretion of TNFα: reduces
